For the test, the system named is Trichophyton mentagrophytes. It is filed as cell-based.

Numbered stars: 1 amine (or outer) side, 2 acyl side, 3 side chain; on linkers, the order of the positions; unused ones are H or OH. Bridge positions count the residues as written; N and C are the ends. Square brackets hold non-standard residues; d marks the D form. Peptide text beside a SMILES is read from it. X1 = CC(C)CCCCCCCCC[C@H](CC(=O)[*:1])O[*:2]

In the case of `CC(C)CCCCCCCCC[C@@H]1CC(=O)N[C@@H](CCC(=O)O)C(=O)N[C@@H](CC(C)C)C(=O)N[C@H](CC(C)C)C(=O)N[C@@H](C(C)C)C(=O)N[C@@H](CC(=O)O)C(=O)N[C@H](CC(C)C)C(=O)N[C@@H](CC(C)C)C(=O)O1` [surfactin] (EL[dL]VD[dL]L; linker N-C via X1), the “antifungal activity (growth inhibition of test microorganism)” value is listed as “weaker than iturin A, but slight inhibitory activities”.
